Data set [1] can be described thus: SAD study safety and tolerability (adverse events), healthy male volunteers.
For data set [2], the target named is CYP3A4 (Homo sapiens, UniProt P08684). The data set can be described thus: In vitro metabolism. The data set is classed as in vitro ADME.
Data set [3] concerns primary human fibroblasts from patients with MELAS. The data set can be described thus: Oxidative stress-induced cell death (BSO) assay, MELAS patient fibroblasts. The data set is classed as cell-based. As to conditions: Homo sapiens, Fibroblast; fibroblasts derived from MELAS patients, 100 μM BSO; unit as printed for KH176; read-out: EC50, protection from oxidative stress-induced cell death. The text has this: To determine the effective concentration of the compounds (the concentrations that protect patient cells against oxidative stress-induced cell death) the applicant established an assay using stressed primary human fibroblasts from patients with Leigh syndrome, MELAS or LHON diseases. Utilising the inherent oxidative stress of fibroblasts from patients with mitochondrial disease, their oxidative burden was further increased by depleting cellular glutathione with an inhibitor of glutathione synthesis, L-buthionine-(S,R)-sulfoximine (BSO). […] Cells were seeded at a density of 3000 cells/well in a 96-well format and incubated with increasing concentrations of compounds in combination with BSO (100 μM, Sigma-aldrich). One day after treatment, the cells were washed twice and stained with a solution of 5 μM calcein-AM (Life technologies C3100MP) during 25 min in 199 medium without phenol red (Life technologies, 11043-023) at room temperature. After 2 washes with PBS (Phosphate buffered saline) the plate was read on a fluorescence plate reader (Fluostar Omega, BMG labtech) and the percentage of cell viability determined as a function of fluorescence intensity.

Data set [4] addresses PgP efflux pump (Homo sapiens, UniProt P08183). The data set can be described thus: In vitro efflux. The data set is classed as in vitro ADME.
A short description of data set [5]: Pharmacodynamic analysis of oxidized and reduced glutathione, MAD study. The data set is classed as in vivo, human. The settings on record: Day 7, blood. Here is the method:
Blood samples for pharmacodynamic analyses were taken pre-dose and at 3, 6 and 24 h post dosing at Day 7 (MAD). All samples were stored in −80° C. until analysis. Quantification of oxidized and reduced glutathione was performed at York Bioanalytical solutions using a previously described validated method (Moore T et al, J Chromatogr B Analyt Technol Biomed Life Sci 2013, 929:51-55). Change from baseline in the concentrations of oxidized and reduced glutathione (GSH/GSSG) was calculated.

Chain of PgP efflux pump (P08183 whole entry): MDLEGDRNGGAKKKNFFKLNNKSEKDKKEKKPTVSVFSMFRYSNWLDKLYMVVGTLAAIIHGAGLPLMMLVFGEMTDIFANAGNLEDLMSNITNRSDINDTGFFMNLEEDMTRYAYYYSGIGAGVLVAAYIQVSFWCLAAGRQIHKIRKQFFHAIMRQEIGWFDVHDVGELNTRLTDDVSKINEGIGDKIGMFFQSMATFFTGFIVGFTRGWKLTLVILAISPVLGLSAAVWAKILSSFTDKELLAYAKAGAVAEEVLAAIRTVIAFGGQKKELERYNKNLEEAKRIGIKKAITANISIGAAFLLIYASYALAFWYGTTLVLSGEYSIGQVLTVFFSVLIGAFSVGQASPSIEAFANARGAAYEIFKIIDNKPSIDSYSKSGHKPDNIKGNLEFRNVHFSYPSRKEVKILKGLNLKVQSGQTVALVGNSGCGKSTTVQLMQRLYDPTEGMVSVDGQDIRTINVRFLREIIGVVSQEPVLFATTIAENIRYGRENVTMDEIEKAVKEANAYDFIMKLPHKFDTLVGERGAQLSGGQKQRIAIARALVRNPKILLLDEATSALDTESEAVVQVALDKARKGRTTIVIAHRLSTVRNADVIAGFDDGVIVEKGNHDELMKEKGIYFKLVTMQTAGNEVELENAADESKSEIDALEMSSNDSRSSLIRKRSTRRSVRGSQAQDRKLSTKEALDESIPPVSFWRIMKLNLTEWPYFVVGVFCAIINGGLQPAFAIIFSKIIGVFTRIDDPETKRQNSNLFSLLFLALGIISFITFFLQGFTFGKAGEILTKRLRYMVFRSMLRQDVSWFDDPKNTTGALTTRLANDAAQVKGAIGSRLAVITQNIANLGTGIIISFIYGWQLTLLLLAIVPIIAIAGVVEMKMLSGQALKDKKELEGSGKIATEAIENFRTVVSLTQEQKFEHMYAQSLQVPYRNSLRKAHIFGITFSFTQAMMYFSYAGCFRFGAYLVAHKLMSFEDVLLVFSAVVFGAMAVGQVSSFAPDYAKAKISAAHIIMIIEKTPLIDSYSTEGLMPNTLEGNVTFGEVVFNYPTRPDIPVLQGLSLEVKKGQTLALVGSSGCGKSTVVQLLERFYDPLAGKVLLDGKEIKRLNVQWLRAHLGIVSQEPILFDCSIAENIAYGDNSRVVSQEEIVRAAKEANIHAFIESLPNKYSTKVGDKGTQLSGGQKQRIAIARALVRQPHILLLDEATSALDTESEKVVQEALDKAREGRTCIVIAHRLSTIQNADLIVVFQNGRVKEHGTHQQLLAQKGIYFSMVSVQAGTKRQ
Chain of CYP3A4 (P08684 whole entry): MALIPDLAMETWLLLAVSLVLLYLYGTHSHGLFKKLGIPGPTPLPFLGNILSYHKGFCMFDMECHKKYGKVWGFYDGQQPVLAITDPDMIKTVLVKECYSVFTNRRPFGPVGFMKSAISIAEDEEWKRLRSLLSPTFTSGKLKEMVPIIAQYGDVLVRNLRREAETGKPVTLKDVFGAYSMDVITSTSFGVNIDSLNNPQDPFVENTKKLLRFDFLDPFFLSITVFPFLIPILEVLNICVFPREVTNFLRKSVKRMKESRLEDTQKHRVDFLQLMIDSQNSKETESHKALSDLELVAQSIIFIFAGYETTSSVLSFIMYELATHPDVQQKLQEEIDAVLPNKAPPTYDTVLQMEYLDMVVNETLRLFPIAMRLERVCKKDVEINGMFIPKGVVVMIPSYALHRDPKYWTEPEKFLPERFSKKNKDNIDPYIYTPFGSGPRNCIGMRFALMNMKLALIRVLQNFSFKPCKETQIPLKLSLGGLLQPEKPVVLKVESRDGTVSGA

For the compound `Cc1c(C)c2c(c(C)c1O)CC[C@@](C)(C(=O)N[C@@H]1CCCNC1)O2.Cl` [KH176, (S)-6-hydroxy-2,5,7,8-tetramethyl-N-((R)-piperidin-3-yl)chroman-2-carboxamide hydrochloride], the “TEAE: Influenza like illness (subjects)” value in data set [1] (SAD 10 mg (N = 4)), in data set [1] (SAD 30 mg (N = 4)), in data set [1] (SAD 100 mg (N = 4)), in data set [1] (SAD 100 mg + Food (N = 4)), in data set [1] (SAD 300 mg (N = 4)) and in data set [1] (SAD 800 mg (N = 6)) was 0 n (%) in each case. In addition, the “TEAE: Influenza like illness (subjects)” value in data set [1] (SAD 2000 mg (N = 4)) is 0 n (%). In addition, the metabolism entry in data set [2] is reported as “metabolized by CYP3A4”. Also, the EC50 in data set [3] turned out to be 182 nM. Besides, in data set [4], the efflux / excretion entry is “excreted by the PgP efflux pump”. Besides, the “GSH/GSSG ratio, change from baseline” value in data set [5] is “No significant alterations”.
